Experimental findings from patent US20220386606A1, “SPECIFICALLY SUBSTITUTED 3-PHENYL-5-SPIROCYCLOPENTYL-3-PYRROLIN-2-ONES AND THEIR USE AS HERBICIDES” (Bayer Aktiengesellschaft, priority 2019, published 2022) are described below.

SMILES strings stand for the structures.

In test [1] the test system is ALOMY. Put plainly: Pre-emergence herbicidal action against ALOMY. Type of test: in vivo, Alopecurus myosuroides. As to conditions: 320 g/ha, scored visually after 3 weeks vs untreated controls. In a few lines:
(§1)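 Percent activity (0% = like control, 100% = dead) read visually after a 3-week greenhouse period. Application: aqueous WP or EC formulations sprayed onto soil covering sown seeds, water rate 600 to 800 L/ha with 0.2% wetting agent.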

Test [2] relates to AVEFA. Put plainly: Pre-emergence herbicidal action against AVEFA. Type of test: in vivo, Avena fatua. As to conditions: 320 g/ha, scored visually after 3 weeks vs untreated controls. Put shortly:
as §1

The subject of test [3] is DIGSA. In words: Pre-emergence herbicidal action against DIGSA. The test is classed as in vivo, Digitaria sanguinalis. As to conditions: 320 g/ha, scored visually after 3 weeks vs untreated controls. Put shortly:
as §1

Test [4] concerns ECHCG. Put plainly: Pre-emergence herbicidal action against ECHCG. The test is classed as in vivo, Echinochloa crus-galli. As to conditions: 320 g/ha, scored visually after 3 weeks vs untreated controls. In a few lines: as §1
Test [5] concerns LOLRI. Put plainly: Pre-emergence herbicidal action against LOLRI (Table 8, titled post-emergence at 320 g/ha). The test is classed as in vivo, Lolium rigidum. As to conditions: table stands in the pre-emergence section. Put shortly:
as §1

For test [6], the system named is SETVI. Put plainly: Pre-emergence herbicidal action against SETVI. The test is classed as in vivo, Setaria viridis. Conditions: 320 g/ha, scored visually after 3 weeks vs untreated controls. In a few lines: as §1
Test [7] has as its system AMARE. Put plainly: Pre-emergence herbicidal action against AMARE. Type of test: in vivo, Amaranthus retroflexus. Conditions: 320 g/ha. From the text: (§2) Seeds of monocotyledonous and dicotyledonous weed plants and crop plants are laid out in sandy loam soil in wood-fiber pots and covered with soil. The compounds of the invention, formulated in the form of wettable powders (WP) or as emulsion concentrates (EC), are then applied to the surface of the covering soil as aqueous suspension or emulsion at a water application rate equating to 600 to 800 L/ha with addition of 0.2% wetting agent.
(§3) After the treatment, the pots are placed in a greenhouse and kept under good growth conditions for the trial plants. The damage to the test plants is scored visually after a test period of 3 weeks by comparison with untreated controls (herbicidal activity in percent (%): 100% activity=the plants have died, 0% activity=like control plants).

The subject of test [8] is VIOTR. Put plainly: Pre-emergence herbicidal action against VIOTR. Type of test: in vivo, Viola tricolor. Conditions: 320 g/ha.
Description: as §2, §3

For test [9], the system named is ALOMY. Put plainly: Post-emergence herbicidal action against ALOMY. Type of test: in vivo, Alopecurus myosuroides. As to conditions: 80 g/ha, visual assessment after about 3 weeks. In a few lines: (§4)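 Visual scoring about 3 weeks after treatment gave % herbicidal action relative to untreated plants (0% = control-like, 100% = plants dead). Compounds, as WP or EC with 0.2% wetting agent, were sprayed onto green parts at 600–800 l/ha. Plants had reached the one-leaf stage, 2–3 weeks after sowing in sandy loam under greenhouse conditions.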

The test system of test [10] is DIGSA. Put plainly: Post-emergence herbicidal action against DIGSA. Type of test: in vivo, Digitaria sanguinalis. As to conditions: 80 g/ha, visual assessment about 3 weeks after treatment vs untreated controls. In a few lines:
as §4

For test [11], the system named is ECHCG. Put plainly: Post-emergence herbicidal action against ECHCG. Type of test: in vivo, Echinochloa crus-galli. As to conditions: 80 g/ha, visual assessment about 3 weeks after treatment vs untreated controls. In a few lines: as §4
In test [12] the test system is SETVI. Put plainly: Post-emergence herbicidal action against SETVI. Type of test: in vivo, Setaria viridis. Conditions: 80 g/ha, visual assessment about 3 weeks after treatment vs untreated controls. Put shortly: as §4
In test [13] the test system is VERPE. In words: Pre-emergence herbicidal action against VERPE. The test is classed as in vivo, Veronica persica. As to conditions: 320 g/ha.
Description: as §2, §3

For test [14], the system named is AVEFA. Put plainly: Post-emergence herbicidal action against AVEFA. As to conditions: 80 g/ha, visual assessment after about 3 weeks. Type of test: in vivo, Avena fatua. Put shortly: as §4
The subject of test [15] is LOLRI. Put plainly: Post-emergence herbicidal action against LOLRI. Type of test: in vivo, Lolium rigidum. Conditions: 80 g/ha, visual assessment about 3 weeks after treatment vs untreated controls. In a few lines: as §4

With `CC#Cc1cc(C)c(C2=C(O)C3(CCC(COCC)C3)NC2=O)c(Br)c1` (stereo not shown) [Example I-21], the “Pre-emergence action against ALOMY in %” value in [1] was determined as 100%. Besides, in test [2], the “Pre-emergence action against AVEFA in %” value is on record as 100%. The “Pre-emergence action against DIGSA in %” value in test [3] turned out to be 100%. In addition, the “Pre-emergence action against ECHCG in %” value in [4] is 100%. In addition, the “Pre-emergence herbicidal action against LOLRI in %” value in test [5] is given as 100%. The “Pre-emergence action against SETVI in %” value in test [6] is reported as 100%. Also, the “Pre-emergence action against AMARE in %” value in test [7] was found to be 100%. In [8], the “Pre-emergence action against VIOTR in %” value was 100%. The “Post-emergence action against ALOMY in %” value in [9] was 100%. The “Post-emergence action against DIGSA in %” value in test [10] was 100%. For the same compound, the “Post-emergence action against ECHCG in %” value in test [11] stood at 100%. Besides, in test [12], the “Post-emergence action against SETVI in %” value worked out at 100%.
Take `CC#Cc1cc(Br)c(C2=C(O)C3(CCC(COCC)C3)NC2=O)c(CC)c1` (stereo not shown) [Example I-24]: the “Pre-emergence action against VERPE in %” value in [13] is reported as 80%.
In the case of `CC#Cc1cc(C)c(C2=C(O)C3(CCC(COCCOC)C3)NC2=O)c(OC)c1` (stereo not shown) [Example I-52], in test [1], the “Pre-emergence action against ALOMY in %” value is recorded as 100%. Besides, the “Pre-emergence action against AVEFA in %” value in test [2] is reported as 100%. Moreover, in test [3], the “Pre-emergence action against DIGSA in %” value amounted to 100%. In addition, the “Pre-emergence action against ECHCG in %” value in test [4] is 100%. Further, the “Pre-emergence herbicidal action against LOLRI in %” value in test [5] worked out at 100%. Moreover, the “Pre-emergence action against SETVI in %” value in test [6] worked out at 100%. Also, the “Pre-emergence action against AMARE in %” value in test [7] was found to be 80%. Besides, the “Pre-emergence action against VIOTR in %” value in [8] came out at 80%. In addition, the “Post-emergence action against ALOMY in %” value in test [9] is 100%. For the same compound, in [14], the “Post-emergence action against AVEFA in %” value is reported as 90%. Further, in [11], the “Post-emergence action against ECHCG in %” value amounted to 100%. In addition, in [15], the “Post-emergence action against LOLRI in %” value is given as 90%. The “Post-emergence action against SETVI in %” value in [12] is given as 100%.
In the case of `CC#Cc1cc(C)c(C2=C(OC(=O)C(C)C)C3(CCC(COCC)C3)NC2=O)c(Br)c1` (stereo not shown) [Example P-36], in test [1], the “Pre-emergence action against ALOMY in %” value stood at 100%. Also, in [2], the “Pre-emergence action against AVEFA in %” value is given as 80%. The “Pre-emergence action against DIGSA in %” value in [3] worked out at 100%. Further, the “Pre-emergence action against ECHCG in %” value in test [4] is recorded as 90%. Moreover, the “Pre-emergence herbicidal action against LOLRI in %” value in test [5] was determined as 100%. In addition, the “Pre-emergence action against SETVI in %” value in test [6] amounted to 100%. The “Pre-emergence action against VIOTR in %” value in [8] is listed as 100%. The “Pre-emergence action against VERPE in %” value in test [13] was found to be 80%. Besides, the “Post-emergence action against ALOMY in %” value in test [9] worked out at 100%. Also, in test [10], the “Post-emergence action against DIGSA in %” value was 90%. Further, the “Post-emergence action against ECHCG in %” value in [11] was determined as 90%. Also, the “Post-emergence action against SETVI in %” value in test [12] is 100%.
As for `CC#Cc1cc(C)c(C2=C(OC(=O)C(C)C)C3(CCC(COC)C3)NC2=O)c(OC)c1` (stereo not shown) [Example P-46], the “Pre-emergence action against ALOMY in %” value in test [1] came to 100%. The “Pre-emergence action against AVEFA in %” value in [2] stood at 100%. In test [3], the “Pre-emergence action against DIGSA in %” value worked out at 100%. Also, the “Pre-emergence action against ECHCG in %” value in test [4] is 100%. Besides, in [5], the “Pre-emergence herbicidal action against LOLRI in %” value was determined as 100%. The “Pre-emergence action against SETVI in %” value in [6] was 100%. Besides, the “Pre-emergence action against AMARE in %” value in test [7] is listed as 100%. For the same compound, the “Pre-emergence action against VIOTR in %” value in test [8] stood at 100%. Moreover, in [9], the “Post-emergence action against ALOMY in %” value stood at 100%. In addition, the “Post-emergence action against AVEFA in %” value in [14] is given as 90%. Besides, the “Post-emergence action against DIGSA in %” value in test [10] amounted to 100%. In addition, the “Post-emergence action against ECHCG in %” value in [11] was 100%. For the same compound, the “Post-emergence action against LOLRI in %” value in test [15] is recorded as 100%. Further, the “Post-emergence action against SETVI in %” value in test [12] is recorded as 100%.
